According to patent publication US6693189B2, “Materials and method for treating or preventing pathogenic fungal infection” (Ariad Gene Therapeutics, Inc., priority 1996, dated 2004):
Like-named read-outs stand apart in the source and are kept apart here.

Key:
human FKBP12 = human FKBP12 (Homo sapiens, UniProt P62942); assay: competitive fluorescence polarization (FP) FKBP binding assay; details: for fold loss in affinity (vs rapamycin) / fold loss in affinity (cf rapamycin): =IC50/IC50 of rapamycin; for fold loss in affinity (vs rapamycin): C24 oximes; for fold loss in affinity (cf rapamycin): C7 rapalogs
[1] = tested on: Candida albicans clinical isolates; assay: broth macrodilution antifungal assay, C. albicans; assay type: cell-based; details: ratio of relative antifungal to relative immunosuppressive activity
[2] = tested on: Cryptococcus neoformans clinical isolates; assay: broth macrodilution antifungal assay, Cryptococcus neoformans; assay type: cell-based; details: ratio of relative antifungal to relative immunosuppressive activity
[3] = tested on: Aspergillus fumigatus clinical isolates; assay: broth macrodilution antifungal assay, Aspergillus fumigatus; assay type: cell-based; details: III = Asp fumigatus; ratio of relative antifungal to relative immunosuppressive activity
[4] = read-out: FKBP wt FP binding assay IC50, rapamycin C24 oximes, competition with fluoresceinated FK506 probe AP1491

Sequence of human FKBP12 (P62942 whole entry): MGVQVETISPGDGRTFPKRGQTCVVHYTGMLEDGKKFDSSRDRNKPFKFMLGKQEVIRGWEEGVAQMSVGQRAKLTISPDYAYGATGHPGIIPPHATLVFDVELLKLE

fold loss in affinity (vs rapamycin) (human FKBP12) | IC50 (human FKBP12; [4]) | Structure (SMILES) | fold loss in affinity (cf rapamycin) (human FKBP12) | further results
1287 | 2960 nM | CCON=C1CC(C(C)CC2CCC(O)C(OC)C2)OC(=O)C2CCCCN2C(=O)C(=O)C2(O)OC(CCC2C)CC(OC)C(C)=CC=CC=CC(C)CC(C)C(=O)C(OC)C(O)C(C)=CC1C (stereo not drawn) [Compound 7, Rapamycin (E and Z)-24-(O-ethyloxime)] | – | –
3627 | – | CO[C@H]1C[C@@H]2CC[C@@H](C)[C@@](O)(O2)C(=O)C(=O)N2CCCC[C@H]2C(=O)O[C@H]([C@H](C)C[C@@H]2CC[C@@H](O)[C@H](OC)C2)C/C(=N/OCc2ccccc2)[C@H](C)/C=C(\C)[C@@H](O)[C@@H](OC)C(=O)[C@H](C)C[C@H](C)/C=C/C=C/C=C/1C [Compound 11, Rapamycin (E and Z)-24-(O-benzyloxime)] | – | IC50 (human FKBP12): 8340 nM
616 | 1420 nM | COC1CC2CCC(C)C(O)(O2)C(=O)C(=O)N2CCCCC2C(=O)OC(C(C)CC2CCC(O)C(OC)C2)CC(=NOCc2ccccc2)C(C)C=C(C)C(O)C(OC)C(=O)C(C)CC(C)C=CC=CC=C1C (stereo not drawn) [Compound 12, Rapamycin (E and Z)-24-(O-benzyloxime)] | – | –
>13043 | > 30000 nM | COC1CC2CCC(C)C(O)(O2)C(=O)C(=O)N2CCCCC2C(=O)OC(C(C)CC2CCC(O)C(OC)C2)CC(=NOC(C)(C)C)C(C)C=C(C)C(O)C(OC)C(=O)C(C)CC(C)C=CC=CC=C1C (stereo not drawn) [Compound 19] | – | –
– | – | CCOC1C[C@@H]2CC[C@@H](C)[C@@](O)(O2)C(=O)C(=O)N2CCCC[C@H]2C(=O)O[C@H]([C@H](C)C[C@@H]2CC[C@@H](O)[C@H](OC)C2)CC(=O)[C@H](C)/C=C(\C)[C@@H](O)[C@@H](OC)C(=O)[C@H](C)C[C@H](C)/C=C/C=C/C=C/1C (stereo partly drawn) [Compound 27] | 1.1 | –
– | – | CCOC1C[C@@H]2CC[C@@H](C)[C@@](O)(O2)C(=O)C(=O)N2CCCC[C@H]2C(=O)O[C@H]([C@H](C)C[C@@H]2CC[C@@H](O)[C@H](OC)C2)CC(=O)[C@H](C)/C=C(\C)[C@@H](O)[C@@H](OC)C(=O)[C@H](C)C[C@H](C)/C=C/C=C/C=C/1C (stereo partly drawn) [Compound 28] | 1.6 | –
– | – | COC1CC(CC(C)C2CC(=O)C(C)C=C(C)C(O)C(OC)C(=O)C(C)CC(C)C=CC=CC=C(C)C(c3ccc(C)s3)CC3CCC(C)C(O)(O3)C(=O)C(=O)N3CCCCC3C(=O)O2)CCC1O (stereo not drawn) [Compound 36] | 1.6 | –
– | – | COC1CC(CC(C)C2CC(=O)C(C)C=C(C)C(O)C(OC)C(=O)C(C)CC(C)C=CC=CC=C(C)C(c3ccc(C)s3)CC3CCC(C)C(O)(O3)C(=O)C(=O)N3CCCCC3C(=O)O2)CCC1O (stereo not drawn) [Compound 37] | 1.9 | –
– | – | CO[C@H]1C[C@@H]2CC[C@@H](C)[C@@](O)(O2)C(=O)C(=O)N2CCCC[C@H]2C(=O)O[C@H]([C@H](C)C[C@@H]2CC[C@@H](O)[C@H](OC)C2)CC(=O)[C@H](C)/C=C(\C)[C@@H](O)[C@@H](OC)C(=O)[C@H](C)C[C@H](C)/C=C/C=C/C=C/1C [rapamycin, Rapamycin] | – | AF/IS I [1]: 1; AF/IS II [2]: 1; AF/IS III [3]: 1
